In ChEMBL document CHEMBL1201862, “PubChem BioAssay data set” (2004):
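In this assay, cells in 96-well plates receive the compound at five concentrations for 48 hours. Endpoints are linearly interpolated between the surrounding concentrations. At the GI50, growth is halved.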 Active and inactive are the calls of the source. No stated cut-off is given here; in the data, active = GI50 up to about 1.1 µM and inactive = higher.

Legend:
Experiment in all cases: DTP human tumour cell line panel, 48 h
HOP-62 = system: HOP-62
HL-60 = system: HL-60
DU-145 = system: DU-145
786-0 = system: 786-0
NCI-H23 = system: NCI-H23
TK-10 = system: TK-10
IGROV-1 = system: IGROV-1
UACC-62 = system: UACC-62
MDA-MB-435 = system: MDA-MB-435
HCC 2998 = system: HCC 2998
PC-3 = system: PC-3
SK-OV-3 = system: SK-OV-3
MDA-N = system: MDA-N
SW-620 = system: SW-620
NCI-H522 = system: NCI-H522
T47D = system: T47D
UACC-257 = system: UACC-257
LOX IMVI = system: LOX IMVI
RPMI-8226 = system: RPMI-8226
CAKI-1 = system: CAKI-1

Compound	GI50 (HOP-62)	GI50 (HL-60)	GI50 (DU-145)	GI50 (786-0)	GI50 (NCI-H23)	GI50 (TK-10)	GI50 (IGROV-1)	GI50 (UACC-62)	GI50 (MDA-MB-435)	GI50 (HCC 2998)	GI50 (PC-3)	GI50 (SK-OV-3)	GI50 (MDA-N)	GI50 (SW-620)	GI50 (NCI-H522)	GI50 (T47D)	GI50 (UACC-257)	GI50 (LOX IMVI)	GI50 (RPMI-8226)	GI50 (CAKI-1)
OCC1OC(n2nc(-c3ccccc3)nc2-c2cnccn2)C(O)C1O (stereo unspecified)	> 100 µM (inactive)	> 100 µM (inactive)	> 100 µM (inactive)	> 100 µM (inactive)	> 100 µM (inactive)	> 100 µM (inactive)	> 100 µM (inactive)	> 100 µM (inactive)	> 100 µM (inactive)	> 100 µM (inactive)	> 100 µM (inactive)	> 100 µM (inactive)	> 100 µM (inactive)	> 100 µM (inactive)	> 100 µM (inactive)	> 100 µM (inactive)	> 100 µM (inactive)	> 100 µM (inactive)	–	–
c1ccc2oc(-c3ccc(-c4nc5ccccc5o4)c4c3CC4)nc2c1	> 100 µM (inactive)	> 100 µM (inactive)	> 100 µM (inactive)	> 100 µM (inactive)	> 100 µM (inactive)	> 100 µM (inactive)	> 100 µM (inactive)	> 100 µM (inactive)	> 100 µM (inactive)	> 100 µM (inactive)	> 100 µM (inactive)	> 100 µM (inactive)	> 100 µM (inactive)	> 100 µM (inactive)	–	> 100 µM (inactive)	> 100 µM (inactive)	> 100 µM (inactive)	> 100 µM (inactive)	> 100 µM (inactive)
O=C(/C=C/c1ccc(OCc2ccccc2)cc1)NCc1ccc(C(=O)NCCc2ccccc2)cc1	89.1 µM (inactive)	–	> 100 µM (inactive)	> 100 µM (inactive)	> 100 µM (inactive)	> 100 µM (inactive)	> 100 µM (inactive)	> 100 µM (inactive)	> 100 µM (inactive)	> 100 µM (inactive)	> 100 µM (inactive)	> 100 µM (inactive)	> 100 µM (inactive)	> 100 µM (inactive)	> 100 µM (inactive)	> 100 µM (inactive)	> 100 µM (inactive)	> 100 µM (inactive)	–	> 100 µM (inactive)
C[C@@H](c1ccccc1)n1c(N)c(C#N)c2ccc([N+](=O)[O-])cc2c1=O	–	8.75 µM (inactive)	15.9 µM (inactive)	15 µM (inactive)	18.9 µM (inactive)	11.6 µM (inactive)	–	13.2 µM (inactive)	14.2 µM (inactive)	15.5 µM (inactive)	> 100 µM (inactive)	–	23.1 µM (inactive)	19.1 µM (inactive)	–	15.7 µM (inactive)	18.7 µM (inactive)	14.2 µM (inactive)	–	15.1 µM (inactive)
O=C(Nc1ccc(N2C(=O)CSC2c2cccs2)cc1)c1ccc(N2C(=O)CSC2c2cccs2)cc1 (stereo unspecified)	95.3 µM (inactive)	–	> 100 µM (inactive)	58.6 µM (inactive)	24.8 µM (inactive)	> 100 µM (inactive)	> 100 µM (inactive)	56.5 µM (inactive)	83.4 µM (inactive)	> 100 µM (inactive)	> 100 µM (inactive)	> 100 µM (inactive)	> 100 µM (inactive)	> 100 µM (inactive)	36.1 µM (inactive)	46.5 µM (inactive)	> 100 µM (inactive)	88.9 µM (inactive)	–	> 100 µM (inactive)
COc1ccc(-n2c(C)nc3ccc(NC4OC(CO)C(O)C(O)C4O)cc3c2=O)cc1 (stereo unspecified)	> 100 µM (inactive)	> 100 µM (inactive)	> 100 µM (inactive)	> 100 µM (inactive)	> 100 µM (inactive)	> 100 µM (inactive)	> 100 µM (inactive)	> 100 µM (inactive)	> 100 µM (inactive)	> 100 µM (inactive)	> 100 µM (inactive)	–	> 100 µM (inactive)	> 100 µM (inactive)	> 100 µM (inactive)	> 100 µM (inactive)	> 100 µM (inactive)	> 100 µM (inactive)	> 100 µM (inactive)	> 100 µM (inactive)
Cn1c(=O)c(Br)c(C=O)n(CCO[N+](=O)[O-])c1=O	21.6 µM (inactive)	1.77 µM (inactive)	27.2 µM (inactive)	5.14 µM (inactive)	5.7 µM (inactive)	3.86 µM (inactive)	–	1.23 µM (inactive)	5.42 µM (inactive)	15.4 µM (inactive)	9.14 µM (inactive)	18.5 µM (inactive)	4.23 µM (inactive)	2.26 µM (inactive)	–	1.87 µM (inactive)	–	2.14 µM (inactive)	2.26 µM (inactive)	–
C#CC(O)/C=C/CCCCCCC#CC/C=C\CC#CCCCCCC/C=C/C(O)C#C (stereo unspecified)	2.1 µM (inactive)	1.77 µM (inactive)	3.01 µM (inactive)	2.09 µM (inactive)	0.701 µM (active)	2.99 µM (inactive)	0.561 µM (active)	2.64 µM (inactive)	2.34 µM (inactive)	1.8 µM (inactive)	11.6 µM (inactive)	18 µM (inactive)	2.24 µM (inactive)	2.35 µM (inactive)	–	1.4 µM (inactive)	2.39 µM (inactive)	0.0104 µM (active)	–	2.29 µM (inactive)
Cc1ccc(S(=O)(=O)N/N=C2\CC3C4C=CC3C2C4)cc1 (stereo unspecified)	> 100 µM (inactive)	> 100 µM (inactive)	> 100 µM (inactive)	> 100 µM (inactive)	> 100 µM (inactive)	> 100 µM (inactive)	> 100 µM (inactive)	> 100 µM (inactive)	> 100 µM (inactive)	> 100 µM (inactive)	> 100 µM (inactive)	> 100 µM (inactive)	> 100 µM (inactive)	> 100 µM (inactive)	> 100 µM (inactive)	> 100 µM (inactive)	> 100 µM (inactive)	> 100 µM (inactive)	–	> 100 µM (inactive)
Cc1ccsc1C(=O)C(CC(=O)c1cccs1)c1ccsc1 (stereo unspecified)	> 100 µM (inactive)	–	> 100 µM (inactive)	> 100 µM (inactive)	> 100 µM (inactive)	> 100 µM (inactive)	> 100 µM (inactive)	> 10 µM (inactive)	> 100 µM (inactive)	> 100 µM (inactive)	45.8 µM (inactive)	> 100 µM (inactive)	64.6 µM (inactive)	> 100 µM (inactive)	> 100 µM (inactive)	14.5 µM (inactive)	> 100 µM (inactive)	–	–	> 100 µM (inactive)
Cc1ccc2c(c1)C(=O)C1(Cc3ccccc3C1=O)C2 (stereo unspecified)	47 µM (inactive)	> 100 µM (inactive)	> 100 µM (inactive)	> 100 µM (inactive)	> 100 µM (inactive)	> 100 µM (inactive)	> 100 µM (inactive)	28.9 µM (inactive)	> 100 µM (inactive)	> 100 µM (inactive)	> 100 µM (inactive)	31.2 µM (inactive)	> 100 µM (inactive)	> 100 µM (inactive)	> 100 µM (inactive)	> 100 µM (inactive)	> 100 µM (inactive)	> 100 µM (inactive)	> 100 µM (inactive)	–
